# Reference: PubChem BioAssay (NCI)
#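 The compound was tested at five concentrations on cells cultured in 96-well plates, with a 48-hour exposure period. GI50 marks 50% less growth. TGI: total growth inhibition.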
# Experiments:
# Assay in all cases: NCI-60 cell line screen, 48 h
# SN12C renal = system: SN12C renal
# M14 melanoma = system: M14 melanoma
# EKVX NSCLC = system: EKVX NSCLC
# SF-268 CNS = system: SF-268 CNS
# TK-10 renal = system: TK-10 renal
# CCRF-CEM leukemia = system: CCRF-CEM leukemia
# SNB-19 CNS = system: SNB-19 CNS
# MCF7 breast = system: MCF7 breast
# HCT-15 colon = system: HCT-15 colon
# NCI-H522 lung = system: NCI-H522 lung
# MDA-MB-231 breast = system: MDA-MB-231 breast
# PC-3 prostate = system: PC-3 prostate
# T-47D breast = system: T-47D breast
# A498 renal = system: A498 renal
# SNB-75 CNS = system: SNB-75 CNS
# SW-620 colon = system: SW-620 colon
# NCI-H460 lung = system: NCI-H460 lung
# UACC-257 melanoma = system: UACC-257 melanoma
# HOP-92 NSCLC = system: HOP-92 NSCLC
# 786-0 renal = system: 786-0 renal
# OVCAR-5 ovarian = system: OVCAR-5 ovarian
# U251 CNS = system: U251 CNS
# HCC-2998 colon = system: HCC-2998 colon
# K-562 leukemia = system: K-562 leukemia
# SK-OV-3 ovarian = system: SK-OV-3 ovarian
# UO-31 renal = system: UO-31 renal
# NCI-H23 lung = system: NCI-H23 lung
# HCT-116 colon = system: HCT-116 colon
# MOLT-4 leukemia = system: MOLT-4 leukemia
# HS 578T breast = system: HS 578T breast
# BT-549 breast = system: BT-549 breast
# RXF 393 renal = system: RXF 393 renal
# LOX IMVI melanoma = system: LOX IMVI melanoma
# SF-539 CNS = system: SF-539 CNS
# SK-MEL-28 melanoma = system: SK-MEL-28 melanoma
# OVCAR-3 ovarian = system: OVCAR-3 ovarian
# COLO 205 colon = system: COLO 205 colon
# CAKI-1 renal = system: CAKI-1 renal
# OVCAR-8 ovarian = system: OVCAR-8 ovarian
# DU-145 prostate = system: DU-145 prostate
# KM12 colon = system: KM12 colon
# SK-MEL-5 melanoma = system: SK-MEL-5 melanoma
# NCI/ADR-RES ovarian = system: NCI/ADR-RES ovarian
# SF-295 CNS = system: SF-295 CNS
# OVCAR-4 ovarian = system: OVCAR-4 ovarian
# NCI-H226 lung = system: NCI-H226 lung
# IGROV1 ovarian = system: IGROV1 ovarian
# MDA-MB-435 = system: MDA-MB-435
# A549 NSCLC = system: A549 NSCLC
# SK-MEL-2 melanoma = system: SK-MEL-2 melanoma
# RPMI-8226 leukemia = system: RPMI-8226 leukemia
# HT29 colon = system: HT29 colon
# MALME-3M melanoma = system: MALME-3M melanoma
# UACC-62 melanoma = system: UACC-62 melanoma
# HOP-62 NSCLC = system: HOP-62 NSCLC
compound,measurement,setting,value
COc1cc2c3c(n(CCCCl)c(=O)c2cc1OC)-c1ccc(C#N)cc1C3=O,GI50,SN12C renal,22.7 µM
same,TGI,SN12C renal,> 100 µM
same,GI50,M14 melanoma,9.24 µM
same,TGI,M14 melanoma,> 100 µM
same,GI50,EKVX NSCLC,7.99 µM
same,TGI,EKVX NSCLC,67.6 µM
same,GI50,SF-268 CNS,19.5 µM
same,TGI,SF-268 CNS,> 100 µM
same,GI50,TK-10 renal,13.5 µM
same,TGI,TK-10 renal,29.3 µM
same,GI50,CCRF-CEM leukemia,3.59 µM
same,TGI,CCRF-CEM leukemia,> 100 µM
same,GI50,SNB-19 CNS,22.1 µM
same,TGI,SNB-19 CNS,> 100 µM
same,GI50,MCF7 breast,7.3 µM
same,TGI,MCF7 breast,> 100 µM
same,GI50,HCT-15 colon,3.31 µM
same,TGI,HCT-15 colon,20.5 µM
same,GI50,NCI-H522 lung,6.63 µM
same,TGI,NCI-H522 lung,59.2 µM
same,GI50,MDA-MB-231 breast,1.67 µM
same,TGI,MDA-MB-231 breast,10.2 µM
same,GI50,PC-3 prostate,32.4 µM
same,TGI,PC-3 prostate,> 100 µM
same,GI50,T-47D breast,> 100 µM
same,TGI,T-47D breast,> 100 µM
same,GI50,A498 renal,16.1 µM
same,TGI,A498 renal,58.8 µM
same,GI50,SNB-75 CNS,4 µM
same,TGI,SNB-75 CNS,15.8 µM
same,GI50,SW-620 colon,0.996 µM
same,TGI,SW-620 colon,> 100 µM
same,GI50,NCI-H460 lung,10.8 µM
same,TGI,NCI-H460 lung,> 100 µM
same,GI50,UACC-257 melanoma,54.9 µM
same,TGI,UACC-257 melanoma,> 100 µM
same,GI50,HOP-92 NSCLC,16.2 µM
same,TGI,HOP-92 NSCLC,56.8 µM
same,GI50,786-0 renal,14.4 µM
same,TGI,786-0 renal,29.4 µM
same,GI50,OVCAR-5 ovarian,33.6 µM
same,TGI,OVCAR-5 ovarian,> 100 µM
same,GI50,U251 CNS,0.446 µM
same,TGI,U251 CNS,2.83 µM
same,GI50,HCC-2998 colon,4.49 µM
same,TGI,HCC-2998 colon,25.9 µM
same,GI50,K-562 leukemia,> 100 µM
same,TGI,K-562 leukemia,> 100 µM
same,GI50,SK-OV-3 ovarian,15.2 µM
same,TGI,SK-OV-3 ovarian,44 µM
same,GI50,UO-31 renal,30.2 µM
same,TGI,UO-31 renal,> 100 µM
same,GI50,NCI-H23 lung,8.38 µM
same,TGI,NCI-H23 lung,20.9 µM
same,GI50,HCT-116 colon,15.2 µM
same,TGI,HCT-116 colon,> 100 µM
same,GI50,MOLT-4 leukemia,1.68 µM
same,TGI,MOLT-4 leukemia,> 100 µM
same,GI50,HS 578T breast,3.32 µM
same,TGI,HS 578T breast,21.9 µM
same,GI50,BT-549 breast,5.5 µM
same,TGI,BT-549 breast,23.6 µM
same,GI50,RXF 393 renal,3.85 µM
same,TGI,RXF 393 renal,18.1 µM
same,GI50,LOX IMVI melanoma,3.43 µM
same,TGI,LOX IMVI melanoma,19.4 µM
same,GI50,SF-539 CNS,7.18 µM
same,TGI,SF-539 CNS,28.2 µM
same,GI50,SK-MEL-28 melanoma,> 100 µM
same,TGI,SK-MEL-28 melanoma,> 100 µM
same,GI50,OVCAR-3 ovarian,12.9 µM
same,TGI,OVCAR-3 ovarian,30.1 µM
same,GI50,COLO 205 colon,43.3 µM
same,TGI,COLO 205 colon,> 100 µM
same,GI50,CAKI-1 renal,10.6 µM
same,TGI,CAKI-1 renal,30.9 µM
same,GI50,OVCAR-8 ovarian,6.3 µM
same,TGI,OVCAR-8 ovarian,34.4 µM
same,GI50,DU-145 prostate,10.7 µM
same,TGI,DU-145 prostate,> 100 µM
same,GI50,KM12 colon,> 100 µM
same,TGI,KM12 colon,> 100 µM
same,GI50,SK-MEL-5 melanoma,90.9 µM
same,TGI,SK-MEL-5 melanoma,> 100 µM
same,GI50,NCI/ADR-RES ovarian,22.4 µM
same,TGI,NCI/ADR-RES ovarian,> 100 µM
same,GI50,SF-295 CNS,5 µM
same,TGI,SF-295 CNS,18.8 µM
same,GI50,OVCAR-4 ovarian,88.7 µM
same,TGI,OVCAR-4 ovarian,> 100 µM
same,GI50,NCI-H226 lung,16.7 µM
same,TGI,NCI-H226 lung,94.9 µM
same,GI50,IGROV1 ovarian,3.64 µM
same,TGI,IGROV1 ovarian,23.1 µM
same,GI50,MDA-MB-435,> 100 µM
same,TGI,MDA-MB-435,> 100 µM
same,GI50,A549 NSCLC,29.5 µM
same,TGI,A549 NSCLC,> 100 µM
same,GI50,SK-MEL-2 melanoma,4.93 µM
same,TGI,SK-MEL-2 melanoma,24.5 µM
same,GI50,RPMI-8226 leukemia,3.97 µM
same,TGI,RPMI-8226 leukemia,> 100 µM
same,GI50,HT29 colon,> 100 µM
same,TGI,HT29 colon,> 100 µM
same,GI50,MALME-3M melanoma,2.49 µM
same,TGI,MALME-3M melanoma,74.4 µM
same,GI50,UACC-62 melanoma,6.81 µM
same,TGI,UACC-62 melanoma,22.5 µM
same,GI50,HOP-62 NSCLC,14.7 µM
same,TGI,HOP-62 NSCLC,30.2 µM
